Measured values reported in the OPERA property sets (Mansouri et al. 2018).

details: not given

SMILES	boiling point	log10 Koc (L/kg)	log10 vapour pressure (mmHg)	melting point	ready biodegradability	log10 Henry constant (atm·m³/mol)	log10 Koa
Oc1ccc(Cl)cc1Cl	210 °C	2.81	-1.05	45 °C	not readily biodegradable		
CNc1ccccn1	200 °C			15 °C			
Oc1ccc(Br)cc1		2.41			not readily biodegradable		
CCCCCCCCCCCCCCCCCC(=O)OCCCC	343 °C			27 °C			
CN(C)CCc1c[nH]c2ccccc12				46 °C			
CN1C(=O)CC(c2ccccc2)C1=O (stereo not given)				72 °C			
CCOC(=O)C(C)O (stereo not given)	154 °C		0.574				
NC(=O)c1c(F)c(F)c(F)c(F)c1F				147 °C			
ICCCCCI				9 °C			
CCOC(=O)c1c(N)sc2c1CCN(Cc1ccccc1)C2				112 °C			
CCCNCC	81 °C						
Clc1cc(Cl)c2c(c1Cl)Oc1ccccc1O2			-6.12	128 °C		-4.44	8.97
FC(Cl)CCl (stereo not given)	73.7 °C			-60 °C			
COC(F)(F)C(F)(F)F			3.21				
O=C1c2cccc(O)c2C(=O)c2c(O)cc(CO)cc21				224 °C			
CCC1(c2ccccc2)C(=O)NC(=O)N(C)C1=O (stereo not given)				176 °C			
Cc1cccc(C(=O)O)c1O				166 °C	not readily biodegradable		
COC(C)CC(OC)OC (stereo not given)	157 °C						
OCCN(CCO)c1nc(N2CCCCC2)c2nc(N(CCO)CCO)ncc2n1				158 °C			
CCOP(=S)(OCC)SC(CCl)N1C(=O)c2ccccc2C1=O (stereo not given)			-7.21	68 °C			
FC1(F)C(F)(F)C(F)(F)C1(F)F	-5.9 °C		3.37	-40.1 °C			
[N-]=[N+]=NCC(=O)N[C@H](CO)[C@H](O)c1ccc([N+](=O)[O-])cc1				107 °C			
N=C(N)NOCC[C@H](N)C(=O)O				184 °C			
NC(=O)c1ccccc1C(N)=O				222 °C			

SMILES	boiling point	log10 Koc (L/kg)	log10 vapour pressure (mmHg)	melting point	ready biodegradability	log10 Henry constant (atm·m³/mol)	log10 Koa
O=C(Cl)C(Cl)=C(Cl)Cl	158 °C						
Cc1ccc(N)cc1N	292 °C		-3.77	99 °C	not readily biodegradable		
C=C(Cl)Cl	31.6 °C	1.81	2.78	-122 °C	not readily biodegradable	-1.58	
CCCCN(CC)c1c([N+](=O)[O-])cc(C(F)(F)F)cc1[N+](=O)[O-]	370 °C	4.03	-4.19	66 °C	not readily biodegradable		
CCCCCCCCCCCCCCCCCc1ccccc1	397 °C			32 °C			
CC(C)OC(=O)c1ccccc1O	238 °C						
FCOC(C(F)(F)F)C(F)(F)F	58.5 °C		2.29				
c1ccc2oncc2c1	215 °C						
Oc1cc(O)cc(Cl)c1				118 °C			
CCC(Cl)Cl	88.1 °C		1.83				
O=C(O)/C=C/CCl				83 °C			
O=[N+]([O-])c1ccc(N=Nc2ccc(O)cc2)cc1			-9.52				
C#CCCCCCCCCCCCCCCCCCC	340 °C			36 °C			
C=C[C@](C)(O)CC[C@@H]1[C@@]2(C)CCCC(C)(C)[C@@H]2CC[C@@]1(C)O				97 °C			
CC1=C(C(=O)Nc2ccccc2)S(=O)(=O)CCO1		1.98	-7.38	120 °C			
Cc1cc([N+](=O)[O-])ccc1N				134 °C			
O=C=Nc1cccc2ccccc12	269 °C						
NC(=O)C(Cl)(Cl)Cl	240 °C	0.99		142 °C			
CC(C)C1(C)N=C(c2nc3ccccc3cc2C(=O)O)NC1=O (stereo not given)		1.3		221 °C	not readily biodegradable		
COc1ccc(/C=C/C(=O)Nc2ccccc2C(=O)O)cc1OC				212 °C			
CC(C)COC(=O)C(=O)OCC(C)C	229 °C						
CCOc1ccc2c3c1O[C@H]1[C@@H](O)C=C[C@H]4[C@@H](C2)N(C)CC[C@@]341				200 °C			
Brc1ccccn1	195 °C		-0.114				
CCC(C)=NO[Si](C)(ON=C(C)CC)ON=C(C)CC					not readily biodegradable		

SMILES	boiling point	log10 Koc (L/kg)	log10 vapour pressure (mmHg)	melting point	ready biodegradability	log10 Henry constant (atm·m³/mol)	log10 Koa
O=C(O)C=Cc1ccc(Br)cc1				263 °C			
O=C1[C@@H]2C[C@H](CN3CCCC[C@@H]23)[C@H]2CCCCN12				111 °C			
Clc1ccc(Cl)cc1	174 °C	2.65	0.24	52.1 °C	not readily biodegradable	-2.62	4.46
COBOC	25.9 °C			-131 °C			
Cc1ccccc1O	191 °C		-0.524	29.8 °C	readily biodegradable	-5.92	
Clc1ccc(Br)cc1	196 °C		-0.588	68 °C			
CNC[C@H](O)c1cccc(O)c1.Cl				142 °C			
CCCc1ccc(O)cc1	233 °C		-1.43	22 °C		-5.94	
CC(C)CS	88.5 °C		1.84				
C[C@@H]1O[C@@H](O[C@H]2CC[C@]3(C=O)[C@H]4CC[C@]5(C)[C@@H](C6=CC(=O)OC6)CC[C@]5(O)[C@@H]4CC[C@]3(O)C2)[C@H](O)[C@H](O)[C@H]1O				238 °C			
COc1ccc([N+](=O)[O-])cn1				108 °C			
CCCCOc1ccc(C)cc1	230 °C						
ON=C(C1CC1)C1CC1				76.5 °C			
C[C@@H]1CC[C@@]2(OC1)O[C@H]1C[C@H]3[C@@H]4CC=C5C[C@@H](O)CC[C@]5(C)[C@H]4CC[C@]3(C)[C@H]1[C@@H]2C				206 °C			
FC(F)C(F)(F)OCC(F)(F)F	56.2 °C		2.33				
NC(=O)N=NC(N)=O			-9.73		not readily biodegradable		
COc1c(Cl)ccc(Cl)c1Cl	227 °C			45 °C		-3.54	
O=C(O)c1ccc([N+](=O)[O-])cc1				242 °C	readily biodegradable		
FC(Cl)C(F)(F)F (stereo not given)	-12 °C		3.46				
CCCC(CC(OCC)OCC)OCC (stereo not given)				-100 °C			
NC(=O)c1ccccc1N	300 °C						
CC(O)C(=O)O (stereo not given)			-1.09	40.9 °C	readily biodegradable		
Brc1ccc2ccccc2c1	282 °C			59 °C			
c1ccc2nc3ccccc3nc2c1		3.37		176 °C			

SMILES	boiling point	log10 Koc (L/kg)	log10 vapour pressure (mmHg)	melting point	ready biodegradability	log10 Henry constant (atm·m³/mol)	log10 Koa
CCCCOC(=O)c1ccccc1C(=O)OCCCC	340 °C	3.14	-4.7	-35 °C	readily biodegradable	-5.74	
CC#CCO	148 °C			-2.2 °C			
CCC(Br)(CC)C(=O)NC(=O)NC(C)=O				109 °C			
Clc1cccc2[nH]nnc12		1.98					
[N-]=[N+]=CC(=O)OC[C@H](N)C(=O)O				154 °C			
CC1COC(=O)O1 (stereo not given)	242 °C		-1.35	-48.8 °C	readily biodegradable		
Oc1cc2ccccc2cc1O				162 °C			
CCOC(=O)CNc1nc(Cl)nc(NC(C)C)n1				110 °C			
CC(C)OC(=O)C1(S(=O)(=O)c2ccc([N+](=O)[O-])cc2)CCCCC1				110 °C			
FC(Cl)C(F)(F)Cl (stereo not given)	29.5 °C		2.79	-78 °C			
Nc1cccc(F)c1	188 °C			-5 °C			
N#CCN				101 °C			
CCCC(c1ccccc1)c1ccccc1	287 °C			27 °C			
C#CCCCCCCCC#C				-17 °C			
Cc1cc2cccc(C)c2cc1C	285 °C						
FCOC(F)(F)C(F)F	53.6 °C		2.37				
Cc1cc(Cl)ccc1[N+](=O)[O-]				25.5 °C			
Clc1cccc(-c2ccccc2Cl)c1						-3.6	
CCOc1ccccc1NC(C)=O				79 °C			
CCC[N+](=O)[O-]	131 °C		1	-108 °C		-4.06	3.25
Clc1ccc(/N=N/c2ccccc2)cc1			-5.7	88 °C			
C[C@@H]1CCC[C@H]1O	150 °C						
CC(C)(OO)c1ccccc1			-2.49	-9 °C	not readily biodegradable		
CC=C(Br)Br	125 °C						

SMILES	boiling point	log10 Koc (L/kg)	log10 vapour pressure (mmHg)	melting point	ready biodegradability	log10 Henry constant (atm·m³/mol)	log10 Koa
CCOP(=S)(OCC)Oc1ncn(-c2ccccc2)n1			-5.54				
Cc1cc([N+](=O)[O-])ccc1Cl	249 °C			42.5 °C			
COC(=O)C(C)N(C(=O)c1ccco1)c1c(C)cccc1C (stereo not given)			-6.28	70 °C			
O=C(O)CCC(=O)c1ccccc1				118 °C			
CC(C)(O)CO	176 °C						
CCCCCC(=O)Cl	153 °C			-87 °C			
O=C(O)C(O)(O)C(O)(O)C(=O)O				114 °C			
COc1c(N)cccc1[N+](=O)[O-]					not readily biodegradable		
CCCCC(=O)OCC(=O)[C@H]1[C@H](C)C[C@H]2[C@@H]3C[C@H](F)C4=CC(=O)C=C[C@]4(C)[C@@]3(F)[C@@H](O)C[C@@]21C				195 °C			
CCCCCCCCC(=O)O	254 °C		-2.78	12.3 °C	readily biodegradable		
CCOC	7.4 °C		3.17	-113 °C			
CCOc1ccc(I)cc1	250 °C			29 °C			
Brc1cc(Br)c(Br)s1	260 °C			29 °C			
CC(=O)[C@@]1(O)CC[C@H]2[C@@H]3C[C@H](C)C4=CC(=O)CC[C@]4(C)[C@H]3CC[C@@]21C				214 °C			
NCCCCCO	222 °C			38.5 °C			
N#Cc1cccc(C#N)c1				162 °C	not readily biodegradable		
CCCCCCCCCCCCCCCCCC(=O)OCC(O)[C@H]1OC[C@@H](O)[C@@H]1O (stereo not given in full)					readily biodegradable		
COc1ccccc1N	224 °C		-1.1	6.2 °C	readily biodegradable		
CC1(C)CCC(C)(C)C1	118 °C			-88.4 °C			
CCOC(=O)C(C)C(C)=O (stereo not given)	187 °C						
COc1ccccc1OP(=O)(Oc1ccccc1OC)Oc1ccccc1OC				91 °C			
Cn1cnc2c1c(=O)[nH]c(=O)n2C				357 °C			

same assay, conditions: fish

SMILES	log10 BCF	log10 biotransformation half-life (days)
Oc1ccc(Cl)cc1Cl	1.53	-0.94
Oc1ccc(Br)cc1	1.17	
Clc1cc(Cl)c2c(c1Cl)Oc1ccccc1O2	2.75	0.43
CC1CNC(=S)N1 (stereo not given)	1	
Cc1ccc(N)cc1N	1.7	
C=C(Cl)Cl	1.11	-0.72
Clc1ccc(Cl)cc1	2.62	1.1
Cc1ccccc1O	1.03	-0.52
COc1c(Cl)ccc(Cl)c1Cl	2.52	
CCCCOC(=O)c1ccccc1C(=O)OCCCC	2.22	-0.4
Cc1cc(C)c2c(c1)CC(C)(C)CC2		0.32
N#Cc1cccc(C#N)c1	0.75	-0.62
